# Measurements as given in US8735584B2 (Merck Patent GmbH, priority 2008, dated 2014).
# Biological target: T1, GST-Aurora A (Homo sapiens, UniProt O14965)
# T1 construct: N-terminal GST fusion with full length Aurora A (1-403 amino acids); purchased Carna Biosciences 05-101
# T1 sequence (O14965 1-403): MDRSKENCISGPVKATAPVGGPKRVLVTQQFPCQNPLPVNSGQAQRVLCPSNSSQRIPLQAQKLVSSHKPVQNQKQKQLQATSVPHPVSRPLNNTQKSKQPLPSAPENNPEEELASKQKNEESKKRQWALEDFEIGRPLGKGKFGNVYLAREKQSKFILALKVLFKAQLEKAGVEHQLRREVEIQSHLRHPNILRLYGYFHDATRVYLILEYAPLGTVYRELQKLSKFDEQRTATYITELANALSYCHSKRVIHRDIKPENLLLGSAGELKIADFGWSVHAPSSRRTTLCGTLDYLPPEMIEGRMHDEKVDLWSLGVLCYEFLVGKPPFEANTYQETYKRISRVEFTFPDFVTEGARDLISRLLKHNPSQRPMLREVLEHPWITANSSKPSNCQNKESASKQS
# Test: Aurora A IC50, Caliper LC3000 mobility shift assay
# Type: biochemical
# Details: LC3000 method; 15 uM ATP (the KM value); read-out: Aurora Kinase A Activity (IC50)
# Procedure: The Aurora assays described here are performed on two Caliper Life Sciences systems: the LC3000 and the Desktop Profiler. These provide data on enzyme activity via measurement of the relative amounts of phosphorylated or unphosphorylated fluorescently labelled substrate peptide at the end of an enzymatic reaction. These different states of peptide are resolved by applying a potential difference across the sample. The presence of the charged phosphate group on the product (as opposed to the substrate) causes a different peptide mobility between the two peptides. This is visualized by excitation of the fluorescent label on the substrate and product peptides and represented as peaks within the analysis software.
# In order to measure inhibitor activity of Aurora A inhibitors in the Caliper Life Sciences LC3000, a TTP Mosquito liquid handling instrument is used to place 0.25 ul of the appropriate concentration of inhibitor in 100% DMSO (for a dose response curve calculation) into each well of a 384-well plate. To this reaction components are added to a final volume of 25 ul: • 0.067 ng/ul GST-Aurora A (Carna Biosciences 05-101. N-terminal GST fusion with full length Aurora A (1-403 amino acids), accession number NP 940835.1). • 15 uM ATP (Fluke, 02055) • 1 mM DTT (Sigma, D0632) • 1 mM MgCl2 (Sigma, M1028) • 1 uM substrate peptide (sequence FITC-LRRASLG-(CONH2), synthesized by Tufts Peptide Synthesis service. • 100 mM HEPES pH 7.5 (Calbiochem, 391338) • 0.015% Brij-35 (Sigma, B4184)
# The reaction is incubated for 90 min at 25 C, and then stopped by the addition of 70 ul of Stop buffer (100 mM HEPES pH 7.5, 0.015% Brij-35, 10 mM EDTA (Sigma, E7889)).
# The plate is read on a Caliper LC3000 in an Off-Chip mobility shift assay format, using the following parameters for a 12-sipper chip: screening pressure—1.8 psi, upstream voltage—2700, downstream voltage—1000. These conditions cause unphosphorylated substrate and phosphorylated product peptide to resolve as separate peaks allowing direct measurement of percentage of conversion of substrate to product. The percent conversion can be plotted against concentration of inhibitor to produce a sigmoidal dose response curve, from which an 1050 can be calculated using XLFit for Microsoft Excel.
# In the desired wells of a 384-well plate, Aurora A (0.067 ng/ul) was incubated with 15 uM ATP (the KM value), 1 mM DTT, 1 mM MgCl2, and 1 uM peptide substrate (sequence FITC-LRRASLG-(CONH2), FITC=fluorescein isothiocyanate) in 100 mM HEPES pH 7.5 and 0.015% Brij-35 buffer. The reaction was incubated for 90 min at 25 C, and then stopped by the addition of 45 ul of Stop buffer (100 mM HEPES ph 7.5, 0.015% Brij-35, 10 mM EDTA).
# The plate was read in a Caliper LC 3000 in an Off-Chip mobility shift assay format, using the following parameters: screening pressure—1.8 psi, upstream voltage—2700, downstream voltage—1000. These conditions cause unphosphorylated substrate peptide to resolve as a peak before that of the phosphorylated peptide product.
# In the following table “+” means >100 nM, “++” means 11-100 nM, and “+++” means <11 nM.
row,Structure (SMILES),IC50 [nM]
1,CC(=O)Nc1ccc(C#Cc2ccnc3[nH]c(=O)c4ccccc4c23)cc1 [Compound 265],> 100
2,"COC(=O)c1ccc2c(c1)c(=O)[nH]c1nccc(Nc3ccc(NC(=O)c4ccccc4)cc3)c12 [Compound 267, Methyl 1-(4-benzamidophenylamino)-6-oxo-5,6-dihydrobenzo[c][1,8]naphthyridine-8-carboxylate]",< 11
3,"O=C(O)c1ccc2c(c1)c(=O)[nH]c1nccc(Nc3ccc(NC(=O)c4ccccc4)cc3)c12 [Compound 268, 1-(4-Benzamidophenylamino)-6-oxo-5,6-dihydrobenzo[c][1,8]naphthyridine-8-carboxylic acid]",< 11
4,"CN1CCN(C(=O)c2ccc3c(c2)c(=O)[nH]c2nccc(Nc4ccc(NC(=O)c5ccccc5)cc4)c23)CC1 [Compound 269, N-(4-(8-(4-Methylpiperazine-1-carbonyl)-6-oxo-5,6-dihydrobenzo[c][1,8]naphthyridin-1-ylamino)phenyl)benzamide]",11 to 100
5,"CN(C)CCNC(=O)c1ccc2c(c1)c(=O)[nH]c1nccc(Nc3ccc(NC(=O)c4ccccc4)cc3)c12 [Compound 270, 1-(4-Benzamidophenylamino)-N-(2-(dimethylamino)ethyl)-6-oxo-5,6-dihydrobenzo[c][1,8]naphthyridine-8-carboxamide]",11 to 100
6,"CN1CCN(CCNC(=O)c2ccc3c(c2)c(=O)[nH]c2nccc(Nc4ccc(NC(=O)c5ccccc5)cc4)c23)CC1 [Compound 271, 1-(4-Benzamidophenylamino)-N-(2-(4-methylpiperazin-1-yl)ethyl)-6-oxo-5,6-dihydrobenzo[c][1,8]naphthyridine-8-carboxamide]",11 to 100
7,"O=C(NCC(O)CO)c1ccc2c(c1)c(=O)[nH]c1nccc(Nc3ccc(NC(=O)c4ccccc4)cc3)c12 (stereo not shown) [Compound 272, 1-(4-Benzamidophenylamino)-N-(2,3-dihydroxypropyl)-6-oxo-5,6-dihydrobenzo[c][1,8]naphthyridine-8-carboxamide]",< 11
8,"CCN(CCO)Cc1ccc2c(c1)c(=O)[nH]c1nccc(Nc3ccc(NC(=O)c4ccccc4)cc3)c12 [Compound 274, N-(4-(8-((Ethyl(2-hydroxyethyl)amino)methyl)-6-oxo-5,6-dihydrobenzo[c][1,8]naphthyridin-1-ylamino)phenyl)benzamide]",11 to 100
9,"O=C(Nc1ccc(Nc2ccnc3[nH]c(=O)c4cc(Cl)ccc4c23)cc1)c1ccccc1 [Compound 275, N-(4-(8-Chloro-6-oxo-5,6-dihydrobenzo[c][1,8]naphthyridin-1-ylamino)phenyl)benzamide]",11 to 100
10,"CN1CCN(c2ccc3c(c2)c(=O)[nH]c2nccc(Nc4ccc(NC(=O)c5ccccc5)cc4)c23)CC1 [Compound 276, N-(4-(8-(4-Methylpiperazin-1-yl)-6-oxo-5,6-dihydrobenzo[c][1,8]naphthyridin-1-ylamino)phenyl)benzamide]",11 to 100
11,"O=C(Nc1ccc(Nc2ccnc3[nH]c(=O)c4ccc(CO)cc4c23)cc1)c1ccccc1 [Compound 279, N-(4-(9-(Hydroxymethyl)-6-oxo-5,6-dihydrobenzo[c][1,8]naphthyridin-1-ylamino)phenyl)benzamide]",< 11
12,"NCc1ccc2c(=O)[nH]c3nccc(Nc4ccc(NC(=O)c5ccccc5)cc4)c3c2c1 [Compound 280, N-(4-(9-(Aminomethyl)-6-oxo-5,6-dihydrobenzo[c][1,8]naphthyridin-1-ylamino)phenyl)benzamide]",< 11
13,"O=C(O)c1ccc2c(=O)[nH]c3nccc(Nc4ccc(NC(=O)c5ccccc5)cc4)c3c2c1 [Compound 281, 1-(4-Benzamidophenylamino)-6-oxo-5,6-dihydrobenzo[c][1,8]naphthyridine-9-carboxylic acid]",< 11
14,"NC(=O)c1ccc2c(=O)[nH]c3nccc(Nc4ccc(NC(=O)c5ccccc5)cc4)c3c2c1 [Compound 282, 1-(4-benzamidophenylamino)-6-oxo-5,6-dihydrobenzo[c][1,8]naphthyridine-9-carboxamide]",< 11
15,"CN(C)C(=O)c1ccc2c(=O)[nH]c3nccc(Nc4ccc(NC(=O)c5ccccc5)cc4)c3c2c1 [Compound 283, 1-(4-Benzamidophenylamino)-N,N-dimethyl-6-oxo-5,6-dihydrobenzo[c][1,8]naphthyridine-9-carboxamide]",11 to 100
16,"NCCNC(=O)c1ccc2c(=O)[nH]c3nccc(Nc4ccc(NC(=O)c5ccccc5)cc4)c3c2c1 [Compound 284, N-(2-Aminoethyl)-1-(4-benzamidophenylamino)-6-oxo-5,6-dihydrobenzo[c][1,8]naphthyridine-9-carboxamide]",< 11
17,"CN(C)CCNC(=O)c1ccc2c(=O)[nH]c3nccc(Nc4ccc(NC(=O)c5ccccc5)cc4)c3c2c1 [Compound 285, 1-(4-benzamidophenylamino)-N-(2-(dimethylamino)ethyl)-6-oxo-5,6-dihydrobenzo[c][1,8]naphthyridine-9-carboxamide]",< 11
18,"CN1CCN(CCNC(=O)c2ccc3c(=O)[nH]c4nccc(Nc5ccc(NC(=O)c6ccccc6)cc5)c4c3c2)CC1 [Compound 286, 1-(4-benzamidophenylamino)-N-(2-(4-methylpiperazin-1-yl)ethyl)-6-oxo-5,6-dihydrobenzo[c][1,8]naphthyridine-9-carboxamide]",11 to 100
19,"CC(C(=O)Nc1ccccc1)N1CCC(Nc2ccnc3[nH]c(=O)c4ccccc4c23)CC1 (stereo not shown) [Compound 287, 2-(4-(6-oxo-5,6-dihydrobenzo[c][1,8]naphthyridin-1-ylamino)piperidin-1-yl)-N-phenylpropanamide]",> 100
20,"CC(NC(=O)CN1CCC(Nc2ccnc3[nH]c(=O)c4ccccc4c23)CC1)c1ccccc1 (stereo not shown) [Compound 288, 2-(4-(6-Oxo-5,6-dihydrobenzo[c][1,8]naphthyridin-1-ylamino)piperidin-1-yl)-N-(1-phenylethyl)acetamide]",> 100
21,"O=C(NCCO)c1ccc2c(=O)[nH]c3nccc(Nc4ccc(NC(=O)c5ccccc5)cc4)c3c2c1 [Compound 289, 1-(4-Benzamidophenylamino)-N-(2-hydroxyethyl)-6-oxo-5,6-dihydrobenzo[c][1,8]naphthyridine-9-carboxamide]",11 to 100
22,"CN1CCN(C(=O)c2ccc3c(=O)[nH]c4nccc(Nc5ccc(NC(=O)c6ccccc6)cc5)c4c3c2)CC1 [Compound 290, N-(4-(9-(4-Methylpiperazine-1-carbonyl)-6-oxo-5,6-dihydrobenzo[c][1,8]naphthyridin-1-ylamino)phenyl)benzamide]",11 to 100
23,"CN1CCN(Cc2ccc3c(=O)[nH]c4nccc(Nc5ccc(NC(=O)c6ccccc6)cc5)c4c3c2)CC1 [Compound 291, N-(4-(9-((4-methylpiperazin-1-yl)methyl)-6-oxo-5,6-dihydrobenzo[c][1,8]naphthyridin-1-ylamino)phenyl)benzamide]",< 11
24,"CN(C)CCN(C)Cc1ccc2c(=O)[nH]c3nccc(Nc4ccc(NC(=O)c5ccccc5)cc4)c3c2c1 [Compound 292, N-(4-(9-(((2-(Dimethylamino)ethyl)(methyl)amino)methyl)-6-oxo-5,6-dihydrobenzo[c][1,8]naphthyridin-1-ylamino)phenyl)benzamide]",11 to 100
25,"O=C(Nc1ccc(Nc2ccnc3[nH]c(=O)c4ccc(Cl)cc4c23)cc1)c1ccccc1 [Compound 293, N-(4-(9-Chloro-6-oxo-5,6-dihydrobenzo[c][1,8]naphthyridin-1-ylamino)phenyl)benzamide]",< 11
